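Assay format: 96-well plates, 48-hour exposure. TGI is the concentration that stops growth completely.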 Where a SMILES comes first, the peptide text is derived from it. The star is where a group is joined. Boc = CC(C)(C)OC(=O)*; OBn = c1ccc(CO*)cc1

This is an account of results in PubChem BioAssay (NCI).

Among the test systems are SNB-19 CNS; SK-OV-3 ovarian; ACHN renal; SK-MEL-28 melanoma; HCT-116 colon; RPMI-8226 leukemia; MDA-N; MCF7 breast; COLO 205 colon; HT29 colon; NCI-H226 lung.
Common to all, as to assay: growth of human tumour cells (NCI), 48 h

As for `COC(OC)C1OC(CO)C(n2ccc(N)nc2=O)C1O` (stereo not drawn), the TGI with SNB-19 CNS, in the test on SK-OV-3 ovarian, in the test with ACHN renal, in the test with SK-MEL-28 melanoma, with HCT-116 colon and in the test on RPMI-8226 leukemia was more than 100 µM in each case. In addition, the TGI in the test with MDA-N, with MCF7 breast, with COLO 205 colon, in the test on HT29 colon and in the test with NCI-H226 lung was more than 100 µM throughout.
`CN(NC(=O)CCCl)C1=NCCCCN1`: the TGI in the test on SNB-19 CNS, in the test on SK-OV-3 ovarian, with ACHN renal, with SK-MEL-28 melanoma, with HCT-116 colon and in the test on RPMI-8226 leukemia was more than 100 µM in each case. Also, the TGI in the test on MDA-N, with MCF7 breast, with COLO 205 colon, in the test with HT29 colon and in the test with NCI-H226 lung was more than 100 µM each time.
For `COC(=O)/C=C1\CCC(C)(C(=O)NS(=O)(=O)c2ccc(C)cc2)C1(C)C` (stereo not drawn), the TGI in the test with SNB-19 CNS, in the test on SK-OV-3 ovarian, in the test on ACHN renal, with HCT-116 colon, in the test on RPMI-8226 leukemia and in the test with MDA-N was more than 100 µM each time. For the same compound, the TGI with MCF7 breast, in the test on COLO 205 colon and with NCI-H226 lung was more than 100 µM in each case.
Consider `CCOC(=O)CNC(=O)C(C)NC(=O)C(NC(=O)CC(c1ncc[nH]1)c1ncc[nH]1)C(C)CC` (stereo not drawn), for which the TGI in the test on SNB-19 CNS, in the test with SK-OV-3 ovarian, in the test with ACHN renal, in the test with SK-MEL-28 melanoma, in the test with HCT-116 colon and in the test with RPMI-8226 leukemia was more than 100 µM in each case. Further, the TGI with MDA-N, with MCF7 breast and in the test with COLO 205 colon was more than 100 µM in each case.
With `O=c1c(C=Nc2ccc([N+](=O)[O-])cc2)c(O)n(-c2ccccc2)c(=O)n1-c1ccccc1`, the TGI in the test with SNB-19 CNS, with SK-OV-3 ovarian, with ACHN renal, in the test on HCT-116 colon, in the test on RPMI-8226 leukemia and in the test with MDA-N was more than 100 µM each time. In addition, the TGI in the test with MCF7 breast, with COLO 205 colon, with HT29 colon and with NCI-H226 lung was more than 100 µM throughout.
In the case of `COc1ccc(N=N/C(=N/NC(=O)c2ccccc2)c2ccc(N(CCC#N)CCC#N)cc2C)cc1`, the TGI is more than 100 µM with SNB-19 CNS; more than 100 µM with SK-OV-3 ovarian; more than 100 µM with ACHN renal; more than 100 µM in the test with HCT-116 colon; more than 100 µM with RPMI-8226 leukemia; 44.4 µM in the test on MDA-N. In addition, the TGI is more than 100 µM in the test with MCF7 breast, more than 100 µM in the test with COLO 205 colon, 55 µM with HT29 colon and more than 100 µM in the test with NCI-H226 lung.
Consider `CCOc1nc(-c2ccccc2)cc(-c2ccc(N3CCOCC3)cc2)c1C#N`, for which the TGI in the test on SNB-19 CNS, with ACHN renal, in the test with SK-MEL-28 melanoma, with HCT-116 colon, with RPMI-8226 leukemia and in the test with MDA-N was more than 100 µM each time. The TGI with MCF7 breast, with COLO 205 colon, in the test with HT29 colon and with NCI-H226 lung was more than 100 µM in each case.
Consider `C(=C\c1ccccc1)/C=N/c1nc2cc3sc(/N=C/C=C/c4ccccc4)nc3cc2s1`, for which the TGI in the test with SNB-19 CNS, in the test on SK-OV-3 ovarian, in the test on ACHN renal, in the test on SK-MEL-28 melanoma, in the test on HCT-116 colon and in the test on RPMI-8226 leukemia was more than 100 µM each time. Moreover, the TGI in the test on MDA-N was more than 100 µM; in the test with MCF7 breast, more than 100 µM; with COLO 205 colon it was more than 25.8 µM; in the test on HT29 colon, more than 100 µM.
Consider `CC(NC(=O)C(NC(=O)OC(C)(C)C)C(C)C)C(=O)N1CCCC1C(=O)NCC(=O)NC(C(=O)NCC(=O)OCc1ccccc1)C(C)C` (stereo not drawn) (Boc-VAPGVG-OBn; configuration not given here), for which the TGI in the test with SNB-19 CNS, in the test on SK-OV-3 ovarian, in the test on ACHN renal, in the test with SK-MEL-28 melanoma, in the test with HCT-116 colon and in the test with RPMI-8226 leukemia was more than 100 µM throughout. Further, the TGI in the test with MDA-N, in the test on MCF7 breast, with COLO 205 colon and in the test with HT29 colon was more than 100 µM throughout.
Take `CC(CO)C1C[C@H](O)[C@@]2(C)CC(=O)C=C(CO)[C@@H]2C1` (stereo partly drawn): the TGI in the test on SNB-19 CNS, in the test on SK-OV-3 ovarian, with ACHN renal, with SK-MEL-28 melanoma, in the test with HCT-116 colon and in the test on MDA-N was more than 100 µM throughout. Also, the TGI in the test with MCF7 breast, with COLO 205 colon, with HT29 colon and in the test on NCI-H226 lung was more than 100 µM in each case.
Regarding `O=c1cc(N2CCCC2)[nH]c(=O)n1-c1cccc(C(F)(F)F)c1`, the TGI in the test on SNB-19 CNS, with SK-OV-3 ovarian, in the test with ACHN renal, in the test with HCT-116 colon, with RPMI-8226 leukemia and in the test with MDA-N was more than 100 µM throughout. Further, the TGI in the test on MCF7 breast, in the test with COLO 205 colon, in the test with HT29 colon and with NCI-H226 lung was more than 100 µM each time.
For the compound `CCCCc1ccc(Nc2ncc3[nH]cnc3n2)cc1`, the TGI with SNB-19 CNS is 44.4 µM; in the test with SK-OV-3 ovarian, 38.1 µM; in the test on ACHN renal, 31.7 µM; in the test on HCT-116 colon, 34.5 µM; with RPMI-8226 leukemia it was 71.2 µM; with MDA-N it was more than 100 µM. Besides, the TGI was more than 100 µM in the test on MCF7 breast, 36.7 µM in the test with COLO 205 colon, 44.8 µM in the test on HT29 colon and 45.4 µM in the test with NCI-H226 lung.
Take `O=C1/C(=C/c2ccccc2[N+](=O)[O-])N=C(c2ccccc2)N1C1Nc2cc3c(cc2S1)NC(N1C(=O)/C(=C/c2ccccc2[N+](=O)[O-])N=C1c1ccccc1)S3` (stereo not drawn): the TGI in the test with ACHN renal is more than 100 µM; in the test with SK-MEL-28 melanoma it was more than 100 µM; in the test with HCT-116 colon, more than 100 µM; with RPMI-8226 leukemia it was 49.7 µM; with MDA-N, more than 100 µM; with MCF7 breast it was more than 100 µM. Besides, the TGI with HT29 colon and with NCI-H226 lung was more than 100 µM in each case.
